Data set [1] can be described thus: Study 1: body weight and food intake in DIO mice, linagliptin monotreatment for 14 days. The conditions noted are these: linagliptin 3 mg/kg/day s.c. The format is in vivo, C57BL/6J mice. On the procedure: (§1) The Danish Animal Experiments Inspectorate approved all experiments which were conducted using internationally accepted principles for the use of laboratory animals (license #2013-15-2934-00784). The study was carried out in compliance with the ARRIVE guidelines. 99 C57BL/6J mice were from Janvier Labs (Le Genest Saint Isle, France) and housed in a controlled environment (12 h light/dark cycle, lights on at 3 AM, 21 ± 2 °C, humidity 50 ± 10%). Each animal was identified by an implantable subcutaneous microchip (PetID Microchip, E-vet, Haderslev, Denmark). Mice arrived at 5 weeks of age and were made diet-induced obese (DIO) by offering ad libitum access to tap water and high-fat diet (5.15 kcal/g; 60 kcal-% fat, 20 kcal-% carbohydrate, 20% kcal-% protein; D12492, Ssniff, Soest, Germany) for 26–27 weeks before study start. The mice were kept on the diet throughout the study.
(§2) DIO mice were randomized into individual treatment groups (n = 9–10 per group) based on body weight measured 3 days prior to initiation of drug treatment. Vehicle was phosphate-buffered saline added 5% mannitol. […] All drugs were administered once daily at 1 h before lights off. The first dose was given on day 0. Body weight and food intake was monitored daily during the treatment period.

Data set [2] in a line: Linagliptin exposure in plasma by LC-MS/MS. It is filed as in vivo, C57BL/6J mice. The following applies: DIO mice, 3 mg/kg/day s.c. once daily, day 14, before (approx. 24 h after previous dose) and 4 h after last dose.
Data set [3] can be described thus: Plasma analytes in DIO mice (active GLP-1, GIP, insulin, metabolic markers). It is filed as in vivo, C57BL/6J mice. The conditions noted are these: study 1, linagliptin 3 mg/kg/day s.c., 4 h post-dosing. On the procedure: Terminal cardiac blood samples were collected in EDTA-coated tubes with (for GLP-1 and GIP analysis) or without (for DPP-IV enzyme analysis) 10 µl DPP-IV inhibitor/ml blood (Millipore, Copenhagen, Denmark) prior to sampling. Plasma was separated by centrifugation (3000 × g for 10 min at 4 °C) and immediately frozen on dry ice and stored at − 80 °C until further analysis. DPP-IV enzyme catalytic activity was determined as reported previously. Active GLP-1 and GIP levels were assessed by ELISA (#K150JWC, MesoScale Discovery, Rockville, MD; #27702, IBL, Fujioka, Japan) according to the manufacturer’s instructions. Plasma levels of insulin were measured by ELISA (#K152BZC, MesoScale Discovery, Rockville, MD), according to the manufacturer’s instructions.

Data set [4] in a line: Study 2: body weight and food intake in DIO mice, 14 days of treatment then 6 days of wash-out. It is filed as in vivo, C57BL/6J mice. The conditions noted are these: linagliptin 3 mg/kg or Y2R agonist 3 or 30 nmol/kg s.c. once daily for 14 days. The protocol: as §1, §2
Data set [5] is described as follows: Oral glucose tolerance test in DIO mice. The following applies: study 2; treatment day 12; 4 h fast; 2 g/kg oral glucose; blood glucose 0–240 min; compared to vehicle dosing. It is filed as in vivo, C57BL/6J mice. On the procedure: In study 2, an oral glucose tolerance test (OGTT) was performed one week prior to treatment start (day -7) and on treatment day 12. Animals were fasted for 4 h prior to OGTT. At t = 0 an oral glucose load (2 g/kg glucose; 200 mg/mL, Fresenius Kabi, Sweden) was administered via a gastrically placed tube. Blood samples for measuring blood glucose were collected from the tail vein at t = 0, 15, 30, 60, 120, 180, 240 min. A pre-OGTT blood sample was collected at − 60 min (OGTT on day − 7) and − 240 min (OGTT on treatment day 12). Glucose area under the curve (AUC) calculations were determined as total AUC from the sampling period of 0 to 240 min.

The next data set addresses T1, DPP-IV (Homo sapiens, UniProt P27487).
T1 construct: Human plasma was used as source of endogenous DPP-IV; from tissue; host or cells: human EDTA-plasma from healthy adult donors
The data set is described as follows: Degradation of synthetic NPY1–36 and PYY1–36 in human plasma (control samples). It is filed as in vitro ADME. The conditions noted are these: 30 pmol peptide in 85 µl PBS + 5 µl human EDTA-plasma, 37 °C, no linagliptin, MALDI-TOF-MS.

The subject of data set [6] is dipeptidyl peptidase IV (DPP-IV). The conditions noted are these: in the circulation; inactivation by DPP-IV; cited from earlier work. An excerpt: Defective pancreatic β-cell function is a key pathological hallmark in type 2 diabetes (T2D). Because progressive loss of β-cell insulin secretory capacity is associated with worsening hyperglycemia, targeting intrinsic β-cell activity is considered essential in T2D management. A canonical role of the gut-derived incretin hormone glucagon-like peptide-1 (GLP-1) is potentiation of glucose-stimulated insulin secretion by activation of GLP-1 receptors in islet β-cells. The incretin effect is estimated to account for approximately 50–70% of total insulin secreted following oral glucose administrat ...

T1 sequence (P27487 39-766 limits assumed): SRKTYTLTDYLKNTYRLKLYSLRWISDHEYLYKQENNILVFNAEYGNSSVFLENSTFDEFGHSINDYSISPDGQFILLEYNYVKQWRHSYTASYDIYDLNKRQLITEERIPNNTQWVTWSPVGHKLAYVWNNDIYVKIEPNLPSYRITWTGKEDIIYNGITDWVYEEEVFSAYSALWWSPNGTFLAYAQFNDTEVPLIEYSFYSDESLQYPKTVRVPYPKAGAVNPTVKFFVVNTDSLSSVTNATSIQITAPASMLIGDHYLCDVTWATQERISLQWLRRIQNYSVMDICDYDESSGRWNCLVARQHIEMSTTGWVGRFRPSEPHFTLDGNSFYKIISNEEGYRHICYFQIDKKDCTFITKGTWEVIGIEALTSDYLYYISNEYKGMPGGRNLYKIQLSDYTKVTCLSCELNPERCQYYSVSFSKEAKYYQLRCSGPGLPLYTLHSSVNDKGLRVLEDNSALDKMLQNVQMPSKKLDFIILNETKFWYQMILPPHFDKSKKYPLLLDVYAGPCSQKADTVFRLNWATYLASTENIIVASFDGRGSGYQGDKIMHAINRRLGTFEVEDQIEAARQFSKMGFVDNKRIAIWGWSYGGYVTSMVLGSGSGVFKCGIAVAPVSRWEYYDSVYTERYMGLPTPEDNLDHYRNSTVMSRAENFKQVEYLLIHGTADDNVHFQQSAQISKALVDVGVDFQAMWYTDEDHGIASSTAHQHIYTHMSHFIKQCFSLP

Turning to `CC#CCn1c(N2CCC[C@@H](N)C2)nc2c1c(=O)n(Cc1nc(C)c3ccccc3n1)c(=O)n2C` [linagliptin], in data set [1] (14 days), the food intake entry is recorded as “essentially unaffected”. Besides, the “weight loss compared to vehicle controls” value in data set [1] (14 days of treatment, p < 0.05) amounted to 2.8%. For the same compound, the plasma linagliptin exposure in data set [2] is given as ~ 200 nM. The “terminal plasma insulin levels” value in data set [3] (day 14) was “unaffected”. For the same compound, in data set [3] (terminal, 14 days), the “plasma TNF-α concentration” value is listed as “significantly reduced”, the plasma pancreatic polypeptide result was “unaffected”, the plasma resistin concentration entry is given as “significantly reduced” and the “plasma total PYY” value is on record as “unaffected”. In addition, in data set [4], the food intake entry was “did not influence food intake”. For the same compound, the oral glucose tolerance entry in data set [5] is “significantly improved glucose tolerance”.
As to “PYY: synthetic human full-length PYY1–36 used as DPP-IV substrate [peptide YY]”, the “fraction of PYY processed” value with DPP-IV (18 h) is recorded as 30%-50%.
Regarding glucagon-like peptide-1 [GLP-1_7–36], in data set [6], the circulatory half-life result is on record as “approximately 1 min”.
Turning to neuropeptide Y [NPY], the “fraction of NPY processed by DPP-IV” value in the data set with DPP-IV (8 h) is listed as “approximately two-thirds”.

The values above are taken from article PMC8044192 (Scientific Reports, 2021).
